# According to patent US20250163104A1, “MACROCYCLIC IMMUNOMODULATORS” (priority 2021, published 2025):
# Where a SMILES comes first, the peptide text is derived from it. Bridges are numbered along the chain shown (N, C = ends). [ ]: non-standard residue; d: D form. The star is where a group is joined. Phe(3-CF3) = N[C@@H](Cc1cccc(C(F)(F)F)c1)C(=O)O; Ala(morpholin-4-yl) = N[C@@H](CN1CCOCC1)C(=O)O; Phe(4-CONH2) = NC(=O)c1ccc(C[C@H](N)C(=O)O)cc1; Phe(4-COOH) = N[C@@H](Cc1ccc(C(=O)O)cc1)C(=O)O; Bip = N[C@@H](Cc1ccc(-c2ccccc2)cc1)C(=O)O; Phe(3-Me) = Cc1cccc(C[C@H](N)C(=O)O)c1; Ala(cPent) = N[C@@H](CC1CCCC1)C(=O)O; Bta = N[C@@H](Cc1csc2ccccc12)C(=O)O; Val(3-OH) = CC(C)(O)[C@H](N)C(=O)O; 4Pal = N[C@@H](Cc1ccncc1)C(=O)O; Cha = N[C@@H](CC1CCCCC1)C(=O)O; dNle = CCCC[C@@H](N)C(=O)O; dOrn = NCCC[C@@H](N)C(=O)O; Carboxymethyl = O=C(O)C*; Nle = CCCC[C@H](N)C(=O)O; Orn = NCCC[C@H](N)C(=O)O; Dab = NCC[C@H](N)C(=O)O; Dap = NC[C@H](N)C(=O)O; Bn = c1ccc(C*)cc1; Propargyl = C#CC*
# Biological target: T1, human PD-1 / PD-L1-Ig binding on Jurkat cell line over-expressing human PD-1 (Jurkat-PD-1) (Homo sapiens, UniProt Q15116)
# T1 construct: expressed in transfected cells; host or cells: Jurkat
# T1 sequence (Q15116 25-288): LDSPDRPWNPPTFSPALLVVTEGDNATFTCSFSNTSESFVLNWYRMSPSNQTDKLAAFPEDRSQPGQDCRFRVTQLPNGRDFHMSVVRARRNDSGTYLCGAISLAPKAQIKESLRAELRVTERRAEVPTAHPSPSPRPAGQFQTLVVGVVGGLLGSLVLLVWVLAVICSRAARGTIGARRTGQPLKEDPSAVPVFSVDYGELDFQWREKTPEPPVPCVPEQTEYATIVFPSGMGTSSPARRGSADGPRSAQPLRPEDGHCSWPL
# Test: Jurkat-PD-1 Cell Binding High-Content Screening Assay (CBA)
# Assay type: cell-based
# Conditions: Jurkat-PD-1 cells, PE-labeled PD-L1-Ig 20 nM final; read-out: Jurkat HPD1_PDL1 IC50
# Summary of the method: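 Jurkat-hPD-1 cells in DMEM with 10% fetal calf serum receive test compound and are held at 37° C for 2 h. PE-labeled PD-L1-Ig is added at 20 nM final and left for 1 hour. Cells are then fixed and Hoechst-stained, and binding is measured by imaging.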
row,Compound,IC50 [µM]
1,CC[C@H](C)[C@@H]1NC(=O)[C@H](Cc2ccc(-c3ccccc3)cc2)NC(=O)[C@H](C(C)C)NC(=O)[C@H](Cc2c[nH]c3ccccc23)NC(=O)[C@H](CC(=O)O)NC(=O)[C@H](Cc2ccc(O)cc2)NC(=O)[C@H](Cc2ccc(OCC(=O)O)cc2)NC(=O)CSC[C@@H](C(=O)N[C@@H](C)C(N)=O)NC(=O)[C@H]([C@@H](C)O)NC(=O)[C@H](C(C)C)NC(=O)[C@H](CC(C)C)NC(=O)[C@H](CCCNC(=N)N)NC(=O)[C@@H](CC(C)C)NC(=O)[C@H](CCCN)NC1=O [Compound 1142] ({CH2CO}-Y(Carboxymethyl)YDWV[Bip]I[Orn][dL]RLVTCA-NH2; thioether N-14),0.0196
2,C#CCOc1ccc(C[C@@H]2NC(=O)[C@H](Cc3ccc(-c4ccccc4)cc3)NC(=O)[C@H](Cc3ccc(C(=O)O)cc3)NC(=O)[C@H](Cc3cccc(C)c3)NC(=O)[C@H](CC(=O)O)NC(=O)[C@H](Cc3ccc(C(=O)O)cc3)NC(=O)[C@H](CCCC)NC(=O)CSC[C@@H](C(=O)N[C@@H](CCN)C(N)=O)NC(=O)[C@H](CCC(=O)O)NC(=O)[C@H](C(C)C)NC(=O)[C@H](CC3CCCCC3)NC(=O)[C@H](CCN)NC(=O)[C@@H](CC(C)C)NC(=O)[C@H](CCCN)NC2=O)cc1 [Compound 1835] ({CH2CO}-[Nle][Phe(4-COOH)]D[Phe(3-Me)][Phe(4-COOH)][Bip]Y(Propargyl)[Orn][dL][Dab][Cha]VEC[Dab]-NH2; thioether N-14),0.0064
3,CC(C)C[C@H]1NC(=O)[C@H](CCCN)NC(=O)[C@H](C(C)C)NC(=O)[C@H](Cc2ccc(-c3ccccc3)cc2)NC(=O)[C@H](C(C)C)NC(=O)[C@H](Cc2c[nH]c3ccccc23)NC(=O)[C@H](CC(=O)O)NC(=O)[C@H](Cc2ccc(OCC(=O)O)cc2)NC(=O)[C@H](Cc2ccncc2)NC(=O)CSC[C@@H](C(=O)N[C@@H](C)C(N)=O)NC(=O)[C@H]([C@@H](C)O)NC(=O)[C@H](C(C)C)NC(=O)[C@H](CC2CCCCC2)NC(=O)[C@H](Cc2cnc[nH]2)NC1=O [Compound 1607],0.0146
4,Cc1cccc(C[C@@H]2NC(=O)[C@H](CC(=O)O)NC(=O)[C@H](Cc3ccncc3)NC(=O)[C@H](Cc3ccc(OCC(=O)O)cc3)NC(=O)CSC[C@@H](C(=O)N[C@@H](C)C(N)=O)NC(=O)[C@H]([C@@H](C)O)NC(=O)[C@H](C(C)C)NC(=O)[C@H](CC(C)C)NC(=O)[C@H](CCN)NC(=O)[C@@H](CC(C)C)NC(=O)[C@H](CCCN)NC(=O)[C@H](C(C)C)NC(=O)[C@H](Cc3ccc(-c4ccccc4)cc3)NC(=O)[C@H](C(C)C)NC2=O)c1 [Compound 1222] ({CH2CO}-Y(Carboxymethyl)[4Pal]D[Phe(3-Me)]V[Bip]V[Orn][dL][Dab]LVTCA-NH2; thioether N-14),0.0147
5,Cc1cccc(C[C@@H]2NC(=O)[C@H](CC(=O)O)NC(=O)[C@H](Cc3ccc(C(N)=O)cc3)NC(=O)[C@H](Cc3ccncc3)NC(=O)CSC[C@@H](C(=O)N[C@@H](CCN)C(N)=O)NC(=O)[C@H](CO)NC(=O)[C@H](C(C)(C)O)NC(=O)[C@H](CC3CCCCC3)NC(=O)[C@H](CCN)NC(=O)[C@@H](CC(C)C)NC(=O)[C@H](CCCN)NC(=O)[C@H](Cc3ccc(OCC(=O)O)cc3)NC(=O)[C@H](Cc3ccc(-c4ccccc4)cc3)NC(=O)[C@H](Cc3ccc(C(=O)O)cc3)NC2=O)c1 [Compound 2627] ({CH2CO}-[4Pal][Phe(4-CONH2)]D[Phe(3-Me)][Phe(4-COOH)][Bip]Y(Carboxymethyl)[Orn][dL][Dab][Cha][Val(3-OH)]SC[Dab]-NH2; thioether N-14),0.005
6,CC[C@H](C)[C@@H]1NC(=O)[C@H](Cc2ccc(-c3ccccc3)cc2)NC(=O)[C@H](CC2CCCC2)NC(=O)[C@H](Cc2c[nH]c3ccccc23)NC(=O)[C@H](CC(=O)O)NC(=O)[C@H](Cc2ccc(OCC(=O)O)cc2)NC(=O)[C@H](CN)NC(=O)CSC[C@@H](C(=O)N[C@@H](C)C(N)=O)NC(=O)[C@H]([C@@H](C)O)NC(=O)[C@H](C(C)C)NC(=O)[C@H](CC2CCCCC2)NC(=O)[C@H](CCN)NC(=O)[C@@H](CC(C)C)NC(=O)[C@H](CCCN)NC1=O [Compound 1723] ({CH2CO}-[Dap]Y(Carboxymethyl)DW[Ala(cPent)][Bip]I[Orn][dL][Dab][Cha]VTCA-NH2; thioether N-14),0.0208
7,CCCC[C@H]1NC(=O)[C@H](CCCN)NC(=O)[C@H](CCC(=O)O)NC(=O)[C@H](Cc2ccc(-c3ccccc3)cc2)NC(=O)[C@H](C(C)C)NC(=O)[C@H](Cc2c[nH]c3ccccc23)NC(=O)[C@H](CC(=O)O)NC(=O)[C@H](Cc2ccc(O)cc2)NC(=O)[C@H](CC(N)=O)NC(=O)CSC[C@@H](C(=O)N[C@@H](C)C(N)=O)NC(=O)[C@H]([C@@H](C)O)NC(=O)[C@H](C(C)C)NC(=O)[C@H](CC2CCCCC2)NC(=O)[C@H](CCN)NC1=O [Compound 1453] ({CH2CO}-NYDWV[Bip]E[Orn][dNle][Dab][Cha]VTCA-NH2; thioether N-14),0.0097
8,CC(C)C[C@H]1NC(=O)[C@H](CCCN)NC(=O)[C@H](Cc2ccc(C(=O)O)cc2)NC(=O)[C@H](Cc2ccc(-c3ccccc3)cc2)NC(=O)[C@H](Cc2csc3ccccc23)NC(=O)[C@H](Cc2cccc(C(F)(F)F)c2)NC(=O)[C@H](CC(=O)O)NC(=O)[C@H](Cc2ccc(C(=O)O)cc2)NC(=O)[C@H](CN2CCOCC2)NC(=O)CSC[C@@H](C(=O)N[C@@H](CCN)C(N)=O)NC(=O)[C@H](CCC(=O)O)NC(=O)[C@H](C(C)C)NC(=O)[C@H](CC2CCCCC2)NC(=O)[C@H](CCN)NC1=O [Example 2739] ({CH2CO}-[Ala(morpholin-4-yl)][Phe(4-COOH)]D[Phe(3-CF3)][Bta][Bip][Phe(4-COOH)][Orn][dL][Dab][Cha]VEC[Dab]-NH2; thioether N-14),0.0032
9,CC(C)C[C@@H]1NC(=O)[C@H](Cc2c[nH]c3ccccc23)NC(=O)[C@H](CC(=O)O)NC(=O)[C@H](Cc2ccc(O)cc2)NC(=O)[C@H](Cc2ccccc2)NC(=O)CSC[C@@H](C(=O)N[C@@H](C)C(N)=O)NC(=O)[C@H](CO)NC(=O)[C@H](C(C)C)NC(=O)[C@H](CC(C)C)NC(=O)[C@H](CC(N)=O)NC(=O)[C@@H](C)NC(=O)[C@@H](CCCN)NC(=O)[C@H](C(C)C)NC(=O)[C@H](Cc2ccc(-c3ccccc3)cc2)NC1=O [Compound 2001] ({CH2CO}-FYDWL[Bip]V[dOrn][dA]NLVSCA-NH2; thioether N-14),0.0421

# More lines, in order of falling IC50, values ahead:
row,IC50 [µM],Compound
1,0.344,CC(C)C[C@H]1NC(=O)[C@H](CCCN)NC(=O)[C@H](CCC(=O)O)NC(=O)[C@H](Cc2ccc(-c3ccccc3)cc2)NC(=O)[C@H](C(C)C)NC(=O)[C@H](Cc2c[nH]c3ccccc23)NC(=O)[C@H](COCc2ccccc2)NC(=O)[C@H](Cc2ccc(OCC(=O)O)cc2)NC(=O)[C@H](CN)NC(=O)CSC[C@@H](C(=O)N[C@@H](C)C(N)=O)NC(=O)[C@H]([C@@H](C)O)NC(=O)[C@H](C(C)C)NC(=O)[C@H](CC2CCCCC2)NC(=O)[C@H](CCN)NC1=O [Compound 1497] ({CH2CO}-[Dap]Y(Carboxymethyl)S(Bn)WV[Bip]E[Orn][dL][Dab][Cha]VTCA-NH2; thioether N-14)
2,0.127,CC(C)C[C@@H]1NC(=O)[C@H](Cc2c[nH]c3ccccc23)NC(=O)[C@H](CC(=O)O)NC(=O)[C@H](Cc2ccc(O)cc2)NC(=O)[C@H](Cc2ccccc2)NC(=O)CSC[C@@H](C(=O)N[C@@H](C)C(N)=O)NC(=O)[C@H]([C@@H](C)O)NC(=O)[C@H](C(C)C)NC(=O)[C@H](CC(C)C)NC(=O)[C@H](CC(N)=O)NC(=O)[C@@H](C)NC(=O)[C@H](CCN)NC(=O)[C@H](C(C)C)NC(=O)[C@H](Cc2ccc(-c3ccccc3)cc2)NC1=O [Compound 1101] ({CH2CO}-FYDWL[Bip]V[Dab][dA]NLVTCA-NH2; thioether N-14)
3,0.0263,CCCC[C@@H]1NC(=O)[C@H](CCN)NC(=O)[C@@H](CC(C)C)NC(=O)[C@H](CCCN)NC(=O)[C@H]([C@@H](C)CC)NC(=O)[C@H](Cc2ccc(-c3ccccc3)cc2)NC(=O)[C@H](C(C)C)NC(=O)[C@H](Cc2c[nH]c3ccccc23)NC(=O)[C@H](CC(=O)O)NC(=O)[C@H](Cc2ccc(O)cc2)NC(=O)[C@H](Cc2ccc(OCC(=O)O)cc2)NC(=O)CSC[C@@H](C(=O)N[C@@H](C)C(N)=O)NC(=O)[C@H]([C@@H](C)O)NC(=O)[C@H](C(C)C)NC1=O [Compound 1168] ({CH2CO}-Y(Carboxymethyl)YDWV[Bip]I[Orn][dL][Dab][Nle]VTCA-NH2; thioether N-14)
4,0.0254,Cc1cccc(C[C@@H]2NC(=O)[C@H](CC(=O)O)NC(=O)[C@H](Cc3ccc(OCC(=O)O)cc3)NC(=O)[C@H](Cc3ccncc3)NC(=O)CSC[C@@H](C(=O)N[C@@H](C)C(N)=O)NC(=O)[C@H]([C@@H](C)O)NC(=O)[C@H](C(C)C)NC(=O)[C@H](CC3CCCCC3)NC(=O)[C@H](Cc3cnc[nH]3)NC(=O)[C@@H](CC(C)C)NC(=O)[C@H](CCCN)NC(=O)[C@H](C(C)C)NC(=O)[C@H](Cc3ccc(-c4ccccc4)cc3)NC(=O)[C@H](C(C)C)NC2=O)c1 [Compound 1588]
5,0.0207,CC(C)C[C@@H]1NC(=O)[C@H](CCCCN)NC(=O)[C@@H](CC(C)C)NC(=O)[C@H](CCCN)NC(=O)[C@H](C(C)C)NC(=O)[C@H](Cc2ccc(-c3ccccc3)cc2)NC(=O)[C@H](C(C)C)NC(=O)[C@H](Cc2c[nH]c3ccccc23)NC(=O)[C@H](CC(=O)O)NC(=O)[C@H](Cc2ccc(O)cc2)NC(=O)[C@H](CC(N)=O)NC(=O)CSC[C@@H](C(=O)N[C@@H](C)C(N)=O)NC(=O)[C@H](CO)NC(=O)[C@H](C(C)C)NC1=O [Compound 1132] ({CH2CO}-NYDWV[Bip]V[Orn][dL]KLVSCA-NH2; thioether N-14)
6,0.0051,CC(C)C[C@H]1NC(=O)[C@H](CCCN)NC(=O)[C@H](C(C)C)NC(=O)[C@H](Cc2ccc(-c3ccccc3)cc2)NC(=O)[C@H](C(C)C)NC(=O)[C@H](Cc2c[nH]c3ccccc23)NC(=O)[C@H](CC(=O)O)NC(=O)[C@H](Cc2ccc(OCC(=O)O)cc2)NC(=O)[C@H](C(C)O)NC(=O)CSC[C@@H](C(=O)N[C@@H](C)C(N)=O)NC(=O)[C@H](C(C)O)NC(=O)[C@H](C(C)C)NC(=O)C(CC2CCCCC2)NC(=O)[C@H](CCN)NC1=O (stereo partly drawn) [Compound 2511]
